Results reported in patent US10314819B2, “Solid state forms of Eluxadoline” (TEVA PHARMACEUTICALS INTERNATIONAL GMBH, priority 2015, dated 2019).

How the values were obtained:
Format in all cases: physicochemical
[1] = Texture analysis / density at 0.2 MPa; settings: 200 mg sample compressed in steel mould
Description: A simple and low sample consuming method for evaluation of the packing density of powders were obtained as compression profiles under low pressures using a die and a flat-faced punch fitted on a TA-XTplus Texture analyser (Stable Micro Systems Ltd., Godalming, UK). The small amount of 200 mg of sample is compressed in a steel mould (with the rate of displacement 0.03 mm/s). Also, a cyclic procedure (similar to tapping) was performed at maximal compressive displacement 0.5 mm, then retracting, relaxation for 15 s and then repeated compressive steps (altogether up to 20 steps).

[2] = Polymorph stability on storage at various relative humidity (PXRD)
Description: Sample after being powdered in a mortar and pestle is applied directly on a silicon plate holder. The X-ray powder diffraction pattern was measured with Philips X'Pert PRO X-ray powder diffractometer, equipped with Cu irradiation source=1.54184 Å(Ångström), X'Celerator (2.022° 2θ) detector. Scanning parameters: angle range: 3-40 deg., step size 0.0167, time per step 37 s, continuous scan.
(§1) The obtained amorphous form was stored at various conditions, and the PXRD was analyzed after 3 and 7 days:
The obtained pure amorphous form was stored at various conditions, and the PXRD was analyzed after 3 and 7 days:
(§2) The obtained form alpha was stored at various conditions, and the PXRD was analyzed after 3 and 8 days:
(§3) The obtained amorphous form was stored at various conditions of relative humidity, and the PXRD was obtained after 1M (Table 4):
(§4) The obtained amorphous form was stored at various conditions, and the PXRD was obtained after 2M (Table 5):
(§5) XRPD pattern is shown in FIG. 16; SEM image is shown in FIG. 17; DSC thermogram is shown in FIG. 21 and TGA thermogram is shown in FIG. 22. The obtained form alpha was stored at various conditions, and the PXRD was obtained after 8, 14, and 21 days (Table 6): […]

[3] = % weight loss / water content (TGA, KF) after storage at various relative humidity; settings: for % weight loss/water cont. - after 21 days, TGA: TGA up to 121° C.
Description: as §1, §2, §3, §4, §5

[4] = Dissolution in 50 mM phosphate buffer pH = 7.4 at 37° C.; settings: 50 mM phosphate buffer pH = 7.4, 37° C.
Description: Samples were prepared and analysed in duplicate. About 20 mg of each sample were weighed into 500 ml Erlenmeyer flask, 200 ml of 50 mM phosphate buffer pH=7.4, previously heated to 37° C. were added and flasks were shaken at 110 rpm for 60 minutes at 37±0.2° C. in an incubator shaker. 3 ml aliquots were taken at 5, 10, 20, 30, 45 and 60 min, filtered through 0.45 μm Chromafil Xtra RC 45/25 syringe filter and analysed by UV/VIS spectrometer (absorbance at 203 nm).
The measurement was performed using the following instruments: • pH/Ion meter PHM 240, MeterLab, Radiometer Analytical • Incubator shaker Innova 4080, New Brunswick Scientific, 19 mm diameter circular orbit • UV/VIS spectrometer Varian Cary 50 Bio, 1 mm quartz cell Results of Eluxadoline samples dissolution in 50 mM phosphate buffer pH=7.4 are summarized in Table 8 below: […]

[5] = Bulk density/tapped density, Hausner ratio and Carr index (Ph. Eur. 2.9.34. Method 1); settings: PSD/μm 3/8/24
Description: Bulk density/tapped density and corresponding Hausner ratio and Carr index were determined according to Ph. Eur. 2.9.34. Method 1.

[6] = Specific surface area (SSA), BET nitrogen
Description: Specific Surface Area (SSA) measurements (Bet Nitrogen) were determined using a Micromeritics ASAP 2000, specific surface area analyzer. Samples were subjected to the BET nitrogen adsorption analysis to determine the specific surface of the samples.
Sample tube: 10 cc bulb with ½″ stem
Sample mass: Approximately ½ full cell
Sample preparation: Degassing with nitrogen
Outgassing conditions: 40° C. (30 min)
Isothermal collection point: 20 adsorption points, in the range 0-1 P/P0
Isothermal data analysis range: 5 point BET in the range 0.05-0.20 P/P0
Equilibration interval: 5 s
Equilibration time out: 600 s

For `COc1ccc(CN(C(=O)[C@@H](N)Cc2c(C)cc(C(N)=O)cc2C)[C@@H](C)c2nc(-c3ccccc3)c[nH]2)cc1C(=O)O` [Eluxadoline alpha-lower particle size, Eluxadoline], which “Density at 0.2 MPa” value [1] is on record?
Its value is 0.5190 mg/mm^3.

With `COc1ccc(CN(C(=O)[C@@H](N)Cc2c(C)cc(C(N)=O)cc2C)[C@@H](C)c2nc(-c3ccccc3)c[nH]2)cc1C(=O)O` [Example 22] as the compound, how does the “PXRD results - after 21 days” value ([2]; 0% RH, 21 days) read?
Its value is “alpha”.

What about the “PXRD results - after 21 days” value ([2]; 20% RH, 21 days) of the same compound?
The value was “alpha”.

And the “PXRD results - after 21 days” value ([2]; 40% RH, 21 days)?
Its value is “alpha”.

What about the “PXRD results - after 21 days” value ([2]; 60% RH, 21 days) of the same compound?
The value was “alpha”.

And the “PXRD results - after 21 days” value ([2]; 80% RH, 21 days)?
Its value is “alpha”.

What about the “PXRD results - after 21 days” value ([2]; 100% RH, 21 days) of the same compound?
Its value is “alpha”.

And the “PXRD results - after 21 days” value ([2]; As is)?
Its value is “alpha”.

What about the “% weight loss/water cont. - after 21 days, TGA” value ([3]; 0% RH, 21 days) of the same compound?
The value was “TGA-0.96%”.

What about the “% weight loss/water cont. - after 21 days, TGA” value ([3]; 20% RH, 21 days) of the same compound?
Its value is “TGA-1.26%”.

What about the “% weight loss/water cont. - after 21 days, TGA” value ([3]; 40% RH, 21 days) of the same compound?
Its value is “TGA-1.46%”.

What about the “% weight loss/water cont. - after 21 days, TGA” value ([3]; 60% RH, 21 days) of the same compound?
The value was “TGA-6.30%”.

And the “% weight loss/water cont. - after 21 days, TGA” value ([3]; 80% RH, 21 days)?
The value was “TGA-7.00%”.

What about the “% weight loss/water cont. - after 21 days, TGA” value ([3]; 100% RH, 21 days) of the same compound?
The value was “TGA-9.01%”.

What about the “% weight loss/water cont. - after 21 days, KF” value ([3]; As is) of the same compound?
Its value is 1.12%.

And the “% weight loss/water cont. - after 21 days, TGA” value ([3]; As is)?
The value was 0.95%.

And the “% dissolved” value ([4]; 5 min)?
The value was 83.62%.

And the “% dissolved” value ([4]; 10 min)?
Its value is 91.02%.

What about the “% dissolved” value ([4]; 20 min) of the same compound?
Its value is 95.48%.

And the “% dissolved” value ([4]; 30 min)?
Its value is 95.87%.

And the “% dissolved” value ([4]; 45 min)?
Its value is 96.56%.

What about the “% dissolved” value ([4]; 60 min) of the same compound?
The value was 96.64%.

And the Bulk density [5]?
The Bulk density was 0.33 mg/mm^3.

What about the “Carr's index” value [5] of the same compound?
Its value is 14.93%.

And the “Flow character (Carr's index)” value [5]?
Its value is “good”.

What about the Hausner ratio [5] of the same compound?
The Hausner ratio was 1.18.

What about the Tapped density [5] of the same compound?
The Tapped density was 0.39 mg/mm^3.

And the “Density at 0.2 MPa” value [1]?
The value was 0.4707 mg/mm^3.

And the SSA [6]?
The SSA was 9.63 m^2/g.
